In test [1] the test system is normal human fibroblasts. The experiment in a line: Hyaluronic acid production by normal human fibroblasts treated with supernatant of treated keratinocytes (HA-ELISA). The class given is cell-based. To be noted: supernatant on fibroblasts 48 hrs. The protocol:
Normal human dermal fibroblasts were cultured to confluence. Cells were treated for 48 hours with supernatants of normal human keratinocytes previously grown in the presence of the test products. The fibroblast supernatants, containing hyaluronic acid, were collected and assayed immediately. Hyaluronic acid was quantified with an ELISA microtiter plate. Protein content was determined for each well of the microtiter plate.
(§1) Primocultures of normal human keratinocytes (NHK) were obtained from cells isolated from skin specimens from plastic surgery.
(§2) NHK were seeded at a density of 130,000 cells/well in specific KSFM culture medium (Gibco®, Invitrogen) in a 24-well plate. The plate was placed in a humid incubator (37° C., 5% CO2) for 24 hours.
Primocultures of normal human fibroblasts (NHF) were obtained from cells isolated from skin specimens from plastic surgery.
NHF were seeded at a density of 90,000 cells/well in E-199 culture medium supplemented with 0.5% FCS (Gibco® Invitrogen) in a 24-well plate. The plate was placed in a humid incubator (37° C., 5% CO2) for 24 hours.
The two cell types—NHK and NHF—were plated 48 hours apart.
The different products at the respective concentrations (diluted in KSFM medium, 600 μl) were contacted with NHK cells for 48 hours. Untreated cells were used as the control condition. Two plates were used to separately test NAG, and NAG+vitamin A propionate, on the one hand, and NAG6P, and NAG6P+vitamin A propionate, on the other hand.
(§3) Each treatment condition was evaluated on three wells of NHK cells.
After 48 hours, a fraction of NHK cell supernatant (300 μl/well) was removed and transferred well for well into NHF cell supernatants (300 μl E-199/well−fresh medium without FCS).
This gave a final volume of 600 μl/well (50:50 ratio of KSFM/E-199 medium) which remained on the NHF cells for 48 hours.
After 48 hours of treatment, the NHF cell supernatant was collected and centrifuged.
Hyaluronic acid was assayed in the cell supernatants as described in example 1.
(§4) The assay was performed in duplicate for each well.
(§5) Optical densities (OD) measured on each sample were plotted on a graph (specific standard curve in the kit). The hyaluronic acid concentration was expressed in ng/ml.
(§6) The amount of hyaluronic acid released by the cells was determined for each well and for each treatment condition, relative to the cell content expressed as μg of protein. Thus, the final result was expressed as ng/ml of hyaluronic acid per μg of protein.
A mean value was calculated for wells treated with the same concentration of test product. This mean was compared with the mean of the control wells (Student t test−comparison of means−significant difference at 95% if p<0.05* and at 99% if p<0.01**).
(§7) The percent stimulation induced by the test products was determined by comparing the mean values of the control and treatment conditions: % Stimulation=(Treated−Control)/Control
(ELISA stands for enzyme-linked immunosorbent assay.)

Test [2] relates to normal human fibroblasts. The experiment in a line: Procollagen 1 production by normal human fibroblasts treated with supernatant of treated keratinocytes (EIA). It counts as cell-based. To be noted: supernatant on fibroblasts 48 hrs. The protocol:
This experiment was carried out according to the method described in example 3. Fibroblast supernatants, containing procollagen 1, were collected and assayed immediately for procollagen 1 by means of an EIA microtiter plate.
After 48 hours of treatment, NHF cell supernatants were collected and centrifuged.
Procollagen 1 was assayed in the cell supernatants by the method described in the Procollagen Type 1 C-peptide EIA kit (MK101, Takara). This is an EIA assay with spectrophotometric detection at 450 nm (Safire, Tecan).
Duplicate determinations were carried out for two wells whereas the third well was assayed only once.
Optical densities (OD) measured on each sample were plotted on a graph (specific standard curve in the kit). The procollagen 1 concentration was expressed in ng/ml.
As in example 3, the protein content was determined in the cell pellets of the supernatants for which procollagen 1 was assayed.
Thus, the final result was expressed as ng/ml of procollagen 1 per μg of protein. A mean value was calculated for wells treated with the same concentration of test product. This mean was compared with the mean of the control wells (Student t test−comparison of means, significant difference at 95% if p<0.05* and at 99% if p<0.01**).
The percent stimulation produced by the test products was determined by comparing the mean values of the control and treatment conditions: % Stimulation=(Treated−Control)/Control

The subject of test [3] is normal human fibroblasts. The experiment in a line: Proliferation of normal human fibroblasts treated with supernatant of treated keratinocytes (Cell Proliferation ELISA, BrdU). It counts as cell-based. Particulars: 1 μM on keratinocytes 48 hrs, supernatant on fibroblasts 48 hrs.
Procedure: This experiment evaluated the proliferation of normal human fibroblasts (dermal primocultures) after 48 hours of treatment with supernatant transferred from human keratinocytes.
The “Cell Proliferation ELISA, BrdU” test quantifies cell proliferation by measuring incorporation of bromodeoxyuridine (BrdU) during DNA synthesis followed by luminescence detection.
Cells were placed in the presence of the treatment for a specified time (incubator at 37° C., 5% CO2). The pyrimidine analogue 5-bromo-2′-deoxyuridine (BrdU) was then added and the cells were further incubated (37° C., 5% CO2) for a minimum of 2 hours, during which time BrdU is incorporated in place of thymidine into the DNA of proliferating cells.
The culture medium was removed, then the cells were fixed and the DNA denatured at the same time (antibody accessibility). An anti-BrdU-POD (peroxidase) antibody was added; this antibody binds to BrdU in newly synthesized DNA. The immune complex was then detected by addition of luminol substrate with measurement of luminescence (Genios, Tecan).
NHF were seeded at a density of 5,000 cells/well in E-199 culture medium (Gibco® Invitrogen) in a 96-well Optilux white plate (BD Falcon 353947). The plate was placed in a humid incubator (37° C., 5% CO2) for 24 hours.
The different products at the respective concentrations (diluted in KSFM culture medium, 600 μl) were contacted with NHK cells for 48 hours. Control cells were left untreated. Each treatment conditions was evaluated on three wells of NHK cells.
After 48 hours, a fraction of the NHK cell supernatant was removed. Each sample of supernatant (2 times 100 μl) from a well on the NHK plate (24 wells) was transferred to two wells in the NHF plate already containing 100 μl of E-199 medium per well. […]
Cell proliferation was quantified by the method described in the “Cell Proliferation ELISA, BrdU” kit (Roche Applied Science No. 11669915001). This is an immunological assay with luminescence detection (Genios, Tecan).
The means of the luminescence values (RLU/s) of six wells with the same treatment condition were determined. […] Proliferation of treated cells was expressed as a percentage of the control(untreated cells−100%)(OD treated/OD control×100).
For test [4], the system named is normal human keratinocytes. The experiment in a line: Hyaluronic acid production by normal human keratinocytes (HA-ELISA of supernatant). It counts as cell-based. To be noted: 1 μM. The protocol: Normal human keratinocytes were cultured to confluence. Cells were treated with the test products for 48 hours. The supernatants, containing hyaluronic acid, were collected and assayed immediately. Hyaluronic acid was quantified with an ELISA microtiter plate.
as §1, §2
The different products at the respective concentrations (diluted in KSFM medium, 600 μl) were contacted with the cells for 48 hours. Untreated cells were used as the control condition.
as §3
After 24 hours of treatment, an intermediate sample of […] of supernatant was removed from each well and the plate returned to the incubator (37° C., 5% CO2).
After 48 hours of treatment, the remaining supernatant (≈350 μA) was collected and centrifuged.
Cell supernatants were assayed according to the method described in the Hyaluronan Enzyme-Linked Immunosorbent Assay kit (HA-ELISA, Echelon Biosciences Inc.). This is an ELISA assay with spectrophotometric detection at 405 nm (Safire, Tecan).
as §4, §5, §6
A mean value was calculated for wells treated with the same concentration of test product. This mean was compared with the mean of the control wells (Student t test−comparison of means−significant difference at 95% if p<0.05* and at 99% if p<0.01*).
as §7
The vitamin A propionate was dissolved in DMSO.

For test [5], the system named is patients with osteoarthritis. To be noted: three-year trial, 212 patients with osteoarthritis, versus slight worsening in placebo group; cited from earlier work.
Setting [6] is: 5 mM on keratinocytes 48 hrs, vs Control.
[7] abbreviates: 10 mM on keratinocytes 48 hrs, vs Control.
Setting [8] is: 1 μM on keratinocytes 48 hrs, NAG6P plate (Table 6).
The mark [9] stands for this setting: 1 μM on keratinocytes 48 hrs, NAG plate (Table 5).
Where [10] appears, read: 1 μM on keratinocytes 48 hrs, NAG6P plate (Table 8).
Setting [11] is: 1 μM on keratinocytes 48 hrs, NAG plate (Table 7).

These results are taken from US9907760B2 (LIBRAGEN, priority 2010, dated 2018).

Marks after values point to notes of the source that are not given here.

As for `CC(=O)N[C@H]1C(O)O[C@H](CO)[C@@H](O)[C@@H]1O` (stereo partly shown) [NAG, N-acetylglucosamine], the “Hyaluronic acid” value in test [1] (5 mM on keratinocytes 48 hrs) worked out at 4277.6 ± 488 ng/mL; in test [1] (10 mM on keratinocytes 48 hrs), 4056.1 ± 315.5 ng/mL. For the same compound, the “Hyaluronic acid (ng/ml/μg prot.)” value in test [1] (5 mM on keratinocytes 48 hrs) was 358.9 ± 81.8 ng/ml/μg prot; in test [1] (10 mM on keratinocytes 48 hrs), 258.8 ± 8.1 ng/ml/μg prot. Also, the “% stimulation of hyaluronic acid synthesis” value in test [1] (setting [6]) is listed as −17%; in test [1] (setting [7]), −40%**. In addition, the “Procollagen 1” value came out at 685.9 ± 38.6 ng/mL in test [2] (5 mM on keratinocytes 48 hrs) and 700.9 ± 32.7 ng/mL in test [2] (10 mM on keratinocytes 48 hrs). Moreover, the figures for the “Procollagen 1 (ng/ml/μg prot.)” value in test [2] (5 mM on keratinocytes 48 hrs) and in test [2] (10 mM on keratinocytes 48 hrs) were 57.3 ± 10.5 ng/ml/μg prot and 44.9 ± 1.3 ng/ml/μg prot, respectively. In addition, the “% stimulation (procollagen 1)” value is −37%* in test [2] (setting [6]) and −51%** in test [2] (setting [7]).
In the case of `CCC(=O)OC/C=C(C)/C=C/C=C(C)/C=C/C1=C(C)CCCC1(C)C` [Vit. A propionate, vitamin A propionate], in test [3], the RLU came to 4640 ± 267 RLU. Also, in test [3] (DMSO control = 100%), the “% Proliferation” value worked out at 109%**. Besides, the “% stimulation of hyaluronic acid synthesis” value in test [4] (24 hrs) was 34%*; in test [4] (24 hrs, listed as vitamin A propionate), 34%; in test [4] (48 hrs, vs DMSO control), 105%*; in test [4] (48 hrs, vs DMSO control, listed as vitamin A propionate), 105%; in test [1] (1 μM on keratinocytes 48 hrs, NAG6P plate (Table 6), vs DMSO control), 7%; in test [1] (1 μM on keratinocytes 48 hrs, NAG plate (Table 5), vs DMSO control), −18%. Moreover, the “Hyaluronic acid” value in test [4] (24 hrs) stood at 1056 ± 186.5 ng/mL; in test [4] (48 hrs), 1944.8 ± 393.2 ng/mL; in test [1] (setting [8]), 3358.8 ± 615.3 ng/mL; in test [1] (setting [9]), 3645.6 ± 667.8 ng/mL. Besides, the “Hyaluronic acid (ng/ml/μg prot.)” value in test [4] (48 hrs) was 137.1 ± 32.2 ng/ml/μg prot; in test [1] (setting [8]) it was 389.2 ± 108.3 ng/ml/μg prot; in test [1] (setting [9]), 316.6 ± 68 ng/ml/μg prot. Also, the “Procollagen 1” value was determined as 704.4 ± 38.6 ng/mL in test [2] (setting [10]) and 706.1 ± 73.8 ng/mL in test [2] (setting [11]). Moreover, the entries for the “Procollagen 1 (ng/ml/μg prot.)” value in test [2] (setting [10]) and in test [2] (setting [11]) were 81.9 ± 13.0 ng/ml/μg prot and 64.3 ± 20.1 ng/ml/μg prot, respectively. Moreover, the “% stimulation (procollagen 1)” value is given as 5% in test [2] (1 μM on keratinocytes 48 hrs, NAG6P plate (Table 8), vs DMSO control) and 15% in test [2] (1 μM on keratinocytes 48 hrs, NAG plate (Table 7), vs DMSO control).
In the case of `N[C@H]1C(O)O[C@H](CO)[C@@H](O)[C@@H]1O` (stereo partly drawn) [glucosamine, D-glucosamine], in test [5], the improvement in symptoms is reported as 20-25%.
